Assay results from patent US20240161653A1, “IN VITRO MODEL DEVICE FOR PLACENTAL BARRIER” (CFD Research Corporation, priority 2022, published 2024).
Counter-ions that a name gives are not always drawn.

Legend:
[1] = tested on: placental barrier of the in vitro placenta device (coculture of Bewo trophoblasts and HUVEC); assay: Maternal-placental size exclusion permeability assay in the in vitro placenta device; type: in vitro ADME, human; conditions: injected into maternal vascular channel at 0.1 μL/min for 1 hour; PI = ratio of sum ROIs trophoblast to maternal vascular channel; FIG. 9B
Protocol: Again, devices can be placed in the incubator.
In another example, one embodiment of the present invention was used to evaluate maternal-placental size exclusion, where a fluorescein sodium salt (FSS) solution was injected into the maternal vascular channel at 0.1 μL/min for 1 hour. […] PI was expected to decrease as a function of compound molecular weight.

[2] = tested on: trophoblast channel cells; assay: Cytotoxicity by adenylate kinase release (luminescence), samples from trophoblast channel; type: cell-based; conditions: luminescence plate reader, FIG. 11
Protocol: Following exposure, FSS was injected into the maternal channel and permeability assayed. Permeability in the devices was 10-fold higher in trypan blue treated devices compared to controls. An additional assay was performed to determine cytotoxicity as it relates to the release of adenylate kinase. A positive control (100% death by lysis buffer) and a negative control (media only) were included for comparison. Samples were taken from the trophoblast channel and placed in a low volume, white walled […] plate for luminescence analysis using a plate reader. […] The increase in AK release in arbitrary luminescence units compares the toxic exposure of trypan blue to positive and negative controls.

[3] = tested on: intervillous space-trophoblast barrier; assay: Morphological effects of toxic exposure in the in vitro placenta device; type: cell-based; conditions: injected into maternal channel at 3 μL/min for 4 min, then incubated at 37° C. for 15 min; FIG. 10
Source text: In some embodiments, the in vitro placental model device can be used for studying toxicity of test agents to the placenta. Certain compounds not only induce fetal toxicity upon crossing the placental barrier, but also disrupt the barrier itself. The microfluidic placental barrier model can be used to study response to toxic exposure of test agents. The impact to barrier function can be assessed through permeability comparisons and toxicity (e.g., cytotoxicity, etc.) can be assessed off chip by various methods (e.g., cell lysate luminescence assay, genomic analysis, etc.).
For example, an in vitro placenta device was exposed to trypan blue by injection into the maternal channel at 3 μL/min for 4 min and then incubated at 37° C. for 15 min, similar to protocols in literature^7.8. […] White arrows show barrier degradation, and dark arrows show apoptosis following trypan blue exposure.

increase in average PI compared to 4 kD TRITC-dextran [1] [fold]	Structure (SMILES)	increase in adenylate kinase release [2] [fold]	morphological effects of exposure at the intervillous space-trophoblast barrier [3]
~2	O=C1OC2(c3ccc(O)cc3Oc3cc(O)ccc32)c2ccccc21 [FSS, fluorescein sodium salt]		
	Cc1cc(-c2ccc(/N=N/c3c(S(=O)(=O)O)cc4cc(S(=O)(=O)O)cc(N)c4c3O)c(C)c2)ccc1/N=N/c1c(S(=O)(=O)O)cc2cc(S(=O)(=O)O)cc(N)c2c1O [trypan blue]	1.5	evidence of barrier degradation (e.g., cell death and detachment) and apoptosis
